In article PMC5011342, “A high throughput drug screening assay to identify compounds that promote oligodendrocyte differentiation using acutely dissociated and purified oligodendrocyte precursor cells” (BMC Research Notes, 2016):
Like-named read-outs stand apart in the source and are kept apart here.

Legend:
[1] = system: expanded OPCs; experiment: cells; details: for 0.1 µM (% DMSO) / 1 µM (% DMSO) / 10 µM (% DMSO): alamarBlue viability of expanded OPCs, relative to DMSO control; for 0.1 µM (% DMSO): compound at 0.1 µM; for 1 µM (% DMSO): compound at 1 µM; for 10 µM (% DMSO): compound at 10 µM; for viability at 0.1 µM / viability at 1 µM / viability at 10 µM: Rattus norvegicus, 72 h
Method: Having established a consistent assay for measuring OL differentiation in vitro, the next step was to utilize this assay to assess the ability of a wide array of compounds to promote OL differentiation. Prior to library screening, we first established the maximum non-toxic dose of each compound in the library. […] Therefore, we added each compound in the NIH clinical collection (NCC) library to OPCs at 10, 1, and 0.1 µM concentrations. Three days later, we assessed viability of the treated cells by measuring AlamarBlue fluorescence, a measure of cell viability (see “Methods” section). […] Appropriately, we established three sets of screening concentrations for library compounds: non-toxic compounds were tested at 10 and 2 µM, slightly toxic compounds (only toxic at 10 µM) were tested at 2 and 0.4 µM, and very toxic compounds were tested at 0.4 and 0.08 µM.
OPCs were expanded in vitro by seeding into PDL-coated tissue culture flasks at 1000–2000 cells/cm^2 in differentiation media supplemented with 10 ng/ml PDGF-AA. Proliferating OPCs were fed every 2–3 days and supplemented with 2–3× concentration of PDGF as needed to prevent OPC differentiation. After 6–7 days of proliferation, OPCs were harvested by trypsinization, plated into PDL-coated 96-well Falcon plates and centrifuged at 200×g to facilitate cell attachment, survival, and even distribution of cells. Expanded OPCs were seeded in differentiation media at 10,000 cells/well and incubated for 2 h at 37 °C, 10 % CO2 prior to addition of compounds. The NCC library was diluted and added to cells at 10, 1, and 0.1 µM; each concentration was tested in quadruplicate. As a positive control for the induction of toxicity, 5 ng/ml tunicamycin was added to 8 wells in each plate. Three days later, a 1:10 dilution of alamarBlue® (AB) was added to each well and cells were incubated 4 h at 37 °C, 10 % CO2. AB fluorescence was measured using a PerkinElmer Victor II fluorescence microplate reader (PerkinElmer, Waltham, MA) with 560 nm excitation/590 nm emission filters. For library screening, the highest concentration of each compound was adjusted to a minimally toxic concentration based on this toxicity data. Compounds were additionally tested at a second concentration that was 1/5th of the top concentration. The final concentration of DMSO in each well was 0.1 %.

[2] = system: acutely dissociated and purified rat OPCs; experiment: Acute OL differentiation assay (MBP expression/cell, immunofluorescent image quantification); assay type: cell-based; details: Rattus norvegicus
Method: In order to identify compounds with the potential to promote OL differentiation in vivo and thereby enhance remyelination, we first wanted to establish an in vitro assay system that would closely mimic conditions in vivo. To do this, we started by using OPCs acutely isolated from postnatal day 6–7 (P6–7) rat brains by O4 immunopanning. […] OPCs were plated directly onto a biological substrate (PDL/laminin) in 96-well view plates at moderate density to allow for sufficient room to expand processes during differentiation. We plated cells in serum-free medium lacking OPC mitogens (no PDGF or FGF) to allow a basal level of OL differentiation to commence, and as a positive control added thyroid hormone (T3, 40 ng/ml) to accelerate differentiation (Fig. 1, flow scheme).
Fig. 1 Flow scheme of the acute OL differentiation assay. a Purified oligodendrocyte precursor cells (OPCs) were cultured from P7 rat cortex and plated into PDL/laminin pre-coated 96-well plates. b One hour later test compounds were added. c OPC cultures with compound were maintained in culture for an additional 4 days. d On the 5th day with compound, cells were fixed and immunostained with anti-MBP antibodies and DAPI. e Images were acquired with automated fluorescence microscopy and scored phenotypically for OL differentiation (see “Methods” section)
To quantify the extent of OL differentiation occurring in treatment conditions, we measured the overall amount of MBP expression/cell (see “Methods” section). Figure 2a depicts the mask created over MBP staining under which the MBP expression was quantified. […]
All animal work was carried out in strict accordance with the recommendations in the Guide for the Care and Use of Laboratory Animals of the National Institutes of Health. The protocol was approved by the Institutional Use and Care and Use Committee at the Molecular Medicine Research Institute (Sunnyvale, CA). Animals used for OPC isolation in these studies were euthanized by decapitation. OPCs from brains of P6-P7 Sprague–Dawley rat pups (Charles River, Wilmington, MA, USA) were enriched by immunopanning as previously described (Dugas et al. 2006). Briefly, single cell suspensions were obtained from papain-digested neonatal brains and depleted of mature glial cells by successive panning with RAN-2- and GalC-coated plates, followed by enrichment for OPCs using O4-coated plates. OPCs were plated in differentiation media (DMEM, 100 U/ml Penicillin/100 µg/ml streptomycin, 2 mM L-glutamine, 1 mM Na pyruvate, 5 µg/ml insulin, 5 µg/ml N-acetyl-L-cysteine, 1× trace elements B,10 ng/ml d-Biotin, 100 µg/ml BSA, 100 µg/ml apo-transferrin, 16 µg/ml putrescine, 60 ng/ml progesterone, 40 ng/ml sodium selenite 5 ng/ml forskolin, 10 ng/ml CNTF, 1 ng/ml NT-3).
Acutely enriched OPCs were plated in differentiation media at 5000 cells/well into PDL/laminin coated 96-well view plates and centrifuged at 200×g to facilitate cell attachment, survival, and even distribution of OPCs. OPCs were pre-incubated for 1–2 h at 37 °C in 10 % CO2, followed by the addition of test compounds in quadruplicate. Controls were added in eight replicate wells, negative control = 0.1 % DMSO; positive control = 40 ng/ml T3. The day of OPC plating was considered DIV0. On DIV4, cells were fixed, immunostained for myelin basic protein (MBP) expression, imaged and quantified as described below.

[3] = test compound at 2 uM, MBP expression relative to quetiapine, NCC library screen, sheet "All OLga data", read-out: 2 uM (% Quet)
[4] = test compound at 10 uM, MBP expression relative to quetiapine, NCC library screen, sheet "All OLga data", read-out: 10 uM (% Quet)
[5] = read-out: 0.1 µM (% DMSO), alamarBlue viability of expanded OPCs, compound at 0.1 µM, sheet All Tox data
[6] = read-out: 1 µM (% DMSO), alamarBlue viability of expanded OPCs, compound at 1 µM, sheet All Tox data
[7] = read-out: 10 µM (% DMSO), alamarBlue viability of expanded OPCs, compound at 10 µM, sheet All Tox data
[8] = 2 uM test compound, relative to quetiapine, sheet "All OLga data", read-out: OL differentiation, 2 uM (% Quet)
[9] = 10 uM test compound, relative to quetiapine, sheet "All OLga data", read-out: OL differentiation, 10 uM (% Quet)
[10] = test compound at 2 uM, NCC library screen, sheet "All OLga data", relative to quetiapine, read-out: 2 uM (% Quet)
[11] = test compound at 10 uM, NCC library screen, sheet "All OLga data", relative to quetiapine, read-out: 10 uM (% Quet)

SMILES	0.1 µM (% DMSO) [1]	1 µM (% DMSO) [1]	10 µM (% DMSO) [1]	activation at 2 µM [2, 3]	activation at 10 µM [2, 4]	viability at 0.1 µM [1, 5]	viability at 1 µM [1, 6]	viability at 10 µM [1, 7]	activation at 2 µM [2, 8]	activation at 10 µM [2, 9]	other results
CC(=O)OCC[N+](C)(C)C [Acetylcholine]	87.6 % DMSO	92.6 % DMSO	87.0 % DMSO	-4.4%	-7.7%	–	–	–	–	–	–
COc1cc(C)c(/C=C/C(C)=C/C=C/C(C)=C/C(=O)O)c(C)c1C [Acitretin]	101.2 % DMSO	141.3 % DMSO	148.0 % DMSO	68.7%	51.4%	–	–	–	–	–	–
CC(=O)Nc1ccc(CC(=O)O)cc1 [Actarit]	–	–	–	–	–	96.4%	104%	102%	4.4%	-11.3%	–
Nc1nc2c(ncn2COCCO)c(=O)[nH]1 [Acyclovir]	98.2 % DMSO	90.8 % DMSO	91.7 % DMSO	21.2%	4.3%	–	–	–	–	–	–
Nc1ncnc2c1ncn2[C@@H]1O[C@H](CO)[C@@H](O)[C@H]1O [Adenosine]	–	–	–	–	–	–	–	–	–	–	viability at 0.1 µM ([1]; read-out: 0.1 µM (% DMSO), alamarBlue viability, NCC library compound at 0.1 µM, sheet "All Tox data"): 88.5%; viability at 1 µM ([1]; read-out: 1 µM (% DMSO), alamarBlue viability, NCC library compound at 1 µM, sheet "All Tox data"): 81.3%; viability at 10 µM ([1]; read-out: 10 µM (% DMSO), alamarBlue viability, NCC library compound at 10 µM, sheet "All Tox data"): 80.5%; activation at 2 µM [2, 10]: 3.3%; activation at 10 µM [2, 11]: -9.9%
CCCSc1ccc2nc(NC(=O)OC)[nH]c2c1 [Albendazole]	55.7 % DMSO	57.4 % DMSO	58.6 % DMSO	–	–	–	–	–	–	–	activation at 0.4 µM ([2]; read-out: 0.4 uM (% Quet)): -27.1%; activation at 2 µM ([2]; read-out: 2 uM (% Quet)): -112%
COc1cc2nc(N(C)CCCNC(=O)C3CCCO3)nc(N)c2cc1OC (stereo not drawn) [Alfuzosin]	–	–	–	–	–	90.1%	89.6%	86.6%	-11.1%	-32.5%	–
Oc1ncnc2[nH]ncc12 [Allopurinol]	83.9 % DMSO	89.7 % DMSO	89.6 % DMSO	–	–	–	–	–	–	–	activation at 2 µM [2, 10]: -5.6%; activation at 10 µM [2, 11]: -5.5%
Cc1[nH]cnc1CN1CCc2c(c3ccccc3n2C)C1=O [Alosetron]	–	–	–	–	–	106%	91.2%	96.3%	-24%	-21.2%	–
